Activity calls are given as the source filed them. No cut-off for these calls is given here.
Experiments:
HT-29 = assay: Cytotoxicity against human HT-29 cells after 72 hrs by MTT assay; assay type: functional, cell-based; settings: HT-29, 72 h
NCI-H292 = assay: Cytotoxicity against human NCI-H292 cells after 72 hrs by MTT assay; assay type: functional, cell-based; settings: NCI-H292, 72 h
[1] = Cytotoxicity against human MDA468 cells after 72 hrs by MTT assay; assay type: functional, cell-based; settings: MDA-MB-468, 72 h
[2] = Cytotoxicity against human PC3 cells after 72 hrs by MTT assay; assay type: functional, cell-based; settings: PC-3, 72 h
Tubulin (Bos taurus) [3] = biological target: T1, Tubulin (Bos taurus) (UniProt Q6B856+Q862L2+Q862F3); assay: Induction of bovine tubulin polymerization at 5 uM after 20 mins by spectrophotometer analysis; assay type: protein assay
Tubulin (Bos taurus) [4] = biological target: T1, Tubulin (Bos taurus); assay: Stabilization of bovine tubulin polymerization at 10 uM after 20 mins by spectrophotometer analysis; assay type: protein assay

SMILES | IC50 (NCI-H292) | also measured
COc1ccc(C(=O)Nc2ccc3c(c2)c(CC(=O)NCCN(C)C)c(C)n3C(=O)c2ccc(Br)cc2)cc1 | 13.9 µM | IC50 (HT-29): 7.19 µM; IC50 [1]: 8.16 µM; IC50 [2]: 10.2 µM
Cc1c(CC(=O)NCCN(C)C)c2cc(N)ccc2n1C(=O)c1ccc(Br)cc1 | 31.5 µM | 
Cc1c(CC(=O)NCCN(C)C)c2cc(NC(=O)c3ccc(C#N)cc3)ccc2n1C(=O)c1ccc(Br)cc1 | 20.8 µM | 
Cc1c(CC(=O)NCCN(C)C)c2cc(NC(=O)OC(C)(C)C)ccc2n1S(=O)(=O)c1ccccc1 | 25.9 µM | 
CC(=O)Nc1ccc2c(c1)c(CC(=O)NCCN(C)C)c(C)n2C(=O)c1ccc(Br)cc1 | 67.6 µM | 
Cc1c(CC(=O)NCCN(C)C)c2cc(NC(=O)c3cccc(OCc4ccccc4)c3)ccc2n1C(=O)c1ccc(Br)cc1 | 1.73 µM | IC50 (HT-29): 1.48 µM; Activity (Tubulin (Bos taurus) [3]): Active; IC50 [1]: 2.37 µM; IC50 [2]: 8.8 µM; Activity (Tubulin (Bos taurus) [4]): Active
Cc1c(CC(=O)NCCN(C)C)c2cc(NC(=O)C(C)C)ccc2n1S(=O)(=O)c1ccccc1 | 30.9 µM | 
CC(=O)O[C@H]1C(=O)[C@@]2(C)[C@H]([C@H](OC(=O)c3ccccc3)[C@]3(O)C[C@H](OC(=O)[C@H](O)[C@@H](NC(=O)c4ccccc4)c4ccccc4)C(C)=C1C3(C)C)[C@]1(OC(C)=O)CO[C@@H]1C[C@@H]2O [PACLITAXEL] | 0.006 µM | Activity (Tubulin (Bos taurus) [4]): Active
Cc1c(CC(=O)NCCN(C)C)c2cc(NC(=O)c3ccccc3)ccc2n1C(=O)c1ccc(Br)cc1 | 13.4 µM | IC50 (HT-29): 6.72 µM; IC50 [1]: 7.67 µM; IC50 [2]: 13.2 µM
Cc1c(CC(=O)NCCN(C)C)c2cc(NC(=O)OC(C)(C)C)ccc2n1C(=O)c1ccc(Br)cc1 | 14.9 µM | 
Cc1c(CC(=O)NCCN(C)C)c2cc(N)ccc2n1S(=O)(=O)c1ccccc1 | 64.2 µM | 
Cc1c(CC(=O)NCCN(C)C)c2cc(NC(=O)c3ccc(Br)cc3)ccc2n1S(=O)(=O)c1ccccc1 | 55.5 µM | 
CCC(=O)Nc1ccc2c(c1)c(CC(=O)NCCN(C)C)c(C)n2C(=O)c1ccc(Br)cc1 | 21.8 µM | 
CCCC(=O)Nc1ccc2c(c1)c(CC(=O)NCCN(C)C)c(C)n2C(=O)c1ccc(Br)cc1 | 39.6 µM | 
CC(=O)Nc1ccc2c(c1)c(CC(=O)NCCN(C)C)c(C)n2S(=O)(=O)c1ccccc1 | 113 µM | 
CCC(=O)Nc1ccc2c(c1)c(CC(=O)NCCN(C)C)c(C)n2S(=O)(=O)c1ccccc1 | 38.5 µM | 
Cc1c(CC(=O)NCCN(C)C)c2cc(NC(=O)c3cccc(OCc4ccccc4)c3)ccc2n1S(=O)(=O)c1ccccc1 | 19.3 µM | 
CCCC(=O)Nc1ccc2c(c1)c(CC(=O)NCCN(C)C)c(C)n2S(=O)(=O)c1ccccc1 | 33.5 µM | 

From ChEMBL document CHEMBL3745689, “Indomethacin derivatives as tubulin stabilizers to inhibit cancer cell proliferation” (Bioorg Med Chem, 2016)
